In patent EP4581943A1, “AEROSOLISABLE MATERIAL FOR USE IN AN ARTICLE” (BT DE Investments Inc., priority 2024, dated 2025):

Experiments:
[1] = Solubility of CBC in solvent systems, step-wise addition, visual inspection; type: physicochemical; conditions: cumulative CBC concentration after addition; solvent PG:VG 70:30
Procedure: (§1) Solvent systems were prepared and then CBG was added in a step-wise fashion and mixed until dissolved (according to visual inspection). The time taken for each addition to be solubilized was recorded.
A similar approach was taken as for example 1, but this time CBC was assessed.

[2] = type: physicochemical
Procedure: as §1

Structure (SMILES)	Concentration [1]	CBG concentration the solvent system could sustain [2]	time taken to solubilize approximately 5% CBG [2]
CCCCCc1cc(O)c2c(c1)OC(C)(CCC=C(C)C)C=C2 (stereo not drawn) [CBC, cannabichromene]	3.0319 %w/w	–	–
CCCCCc1cc(O)c(C/C=C(\C)CCC=C(C)C)c(O)c1 [CBG, cannabigerol]	–	≤ 5 %w/w	> 2 h
